Reference: patent US9193729B2, “Inhibiting transient receptor potential ion channel TRPA1” (Cubist Pharmaceuticals, Inc., priority 2011, dated 2015)
“Also recorded” adds a separate entry of the source.

Columns and labels:
[1] = molecular target: rTRPA1 (Rattus norvegicus, UniProt Q6RI86); experiment: Whole-cell patch clamp inhibition of rTRPA1; assay type: cell-based; details: rTRPA1, 10 micromolar AITC activation; read-out: IC50 Inward current
Procedure: (§1) Data for TRPA1 inhibition and the selectivity of TRPA1 inhibition was obtained by this method for the compound of Formula (Ia) and included in Table 1 and Table 2. All currents were recorded in whole-cell configuration using EPC-9 and EPC-10 amplifiers and Patchmaster software (HEKA). […] The standard pipette solution consisted of 140 mM CsAsp, 10 mM EGTA, 10 mM HEPES, 2.27 mM MgCl2, 1.91 mM CaCl2, 4 mM MgATP, and 0.1-0.3 mM Na2GTP, with pH adjusted to 7.2 with CsOH. In addition, a solution containing 145 mM CsCl, 10 mM HEPES, 10 mM EGTA and 1 mM MgCl2 (pH 7.2 adjusted with CsOH) can be used. The standard bath solution contained 150 mM NaCl, 10 mM HEPES, 10 mM glucose, 4.5 mM KCl, 1 mM EGTA, 3 mM MgCl2, with pH adjusted to 7.4 with NaOH. In some instances, 2 mM CaCl2 was added in place of EGTA and the concentration of MgCl2 was reduced to 1 mM.
(§2) Data were collected either by continuous recordings at −60 mV or by applying voltage ramps from a holding potential of 0 mV every 4 s. […] Inward and outward currents were analyzed from the ramps at −80 and 80 mV, respectively. […]
(§3) Solutions were switched using a gravity-fed continuous focal perfusion system. […] Temperatures were confirmed using a thermistor (Warner Instruments, TA-29), with temperatures at the recorded cell estimated to be within +/−2° C. of those reported. […]

[2] = tested on: serum biomarkers of hepatotoxicity; experiment: Hepatotoxicity serum biomarker study in dogs, oral dose; assay type: in vivo, dog; details: dogs, 50 mg/kg PO
Procedure: The compound of Formula (Ia) was orally dosed to […] at dose levels of 5, 15 or 50 mg/kg using 30% Sulfobutylether β-cyclodextrin as the vehicle for assessment of safety as measured via serum chemistry biomarkers of hepatotoxicity or bile duct injury FIG. 5A, showing measurements of alanine aminotranferease [ALT], aspartate aminotranferease [AST], alkaline phosphatase [ALP] and gamma-glutamyl transferase [GGT] in the dogs at each dose level (each bar represents a measurement from 1 dog in the study). […] For example, the ALT levels were elevated up to about 60-fold in male dogs and up to about 130-fold in female beagle dogs following a single PO dose of 50 mg/kg.

[3] = tested on: formalin-induced pain behavior; experiment: Formalin-induced pain behavior in vivo rodent model; parameters: species or system rat; details: i.p. administration, in words
Source text: The data shown in Tables 3a, 3b, and 3c and FIG. 2 were obtained by administering a pharmaceutical composition comprising the compound of Formula (Ia) to rodents in the formalin-induced pain duration at various doses according to Example 5. Specifically, the data in Tables 3a, 3b, and 3c and FIG. 2 were obtained by intraperitoneal (i.p.) administration of compositions containing different concentrations of the compound of Formula (Ia), a comparator composition containing recited amounts of the comparator compound (e.g., 150 mg/kg of the comparator compound of Formula (II) in Table 3a) and a control composition containing the vehicle (e.g., without the compound of Formula (Ia) or a comparator compound).
The compound of Formula (Ia) and the comparator compounds of Formula (II) and Formula (III) were tested in the formalin-induced pain test reported by Dubuisson et al., Pain 1977 December; 4(2):161-74 (incorporated herein by reference in its entirety). Dubuisson et al. (1977) describe a method for assessing pain and analgesia in rats and cats. Briefly, dilute formalin (50 μL of 3% formalin) is injected into the plantar surface of the hind paw. […] The individual responsible for counting the pain behaviors in a particular study is blinded to the treatment groups.
Rats were treated with the HCl salt of Compound (Ia) at various doses (3, 10, 30, and 50 mg/kg, IP) or with the vehicle (IP).

[4] = molecular target: hERG (Homo sapiens, UniProt Q12809); experiment: Patch clamp selectivity, hERG; assay type: cell-based; details: hERG vs TRPA1
Procedure: as §1, §2, §3

[5] = tested on: female rats; experiment: 7-day i.p. repeat dose screening toxicity study; assay type: in vivo, rat; details: female rats, 50 mg/kg/day i.p. for 7 consecutive days
Procedure: The compound of Formula (Ia) was evaluated in a 7-day repeat dose screening toxicity study in female rats. In order to maximize systemic exposure, rats were administered compound of Formula (Ia) i.p. at 50 mg/kg/day for 7 consecutive days, to obtain the results shown in FIG. 6. Clinical chemistry parameters were evaluated on Days 3 and 8. Histopathology was performed on select organs including the liver, kidney, spleen, and lung.

Sequence of hERG (Q12809 whole entry): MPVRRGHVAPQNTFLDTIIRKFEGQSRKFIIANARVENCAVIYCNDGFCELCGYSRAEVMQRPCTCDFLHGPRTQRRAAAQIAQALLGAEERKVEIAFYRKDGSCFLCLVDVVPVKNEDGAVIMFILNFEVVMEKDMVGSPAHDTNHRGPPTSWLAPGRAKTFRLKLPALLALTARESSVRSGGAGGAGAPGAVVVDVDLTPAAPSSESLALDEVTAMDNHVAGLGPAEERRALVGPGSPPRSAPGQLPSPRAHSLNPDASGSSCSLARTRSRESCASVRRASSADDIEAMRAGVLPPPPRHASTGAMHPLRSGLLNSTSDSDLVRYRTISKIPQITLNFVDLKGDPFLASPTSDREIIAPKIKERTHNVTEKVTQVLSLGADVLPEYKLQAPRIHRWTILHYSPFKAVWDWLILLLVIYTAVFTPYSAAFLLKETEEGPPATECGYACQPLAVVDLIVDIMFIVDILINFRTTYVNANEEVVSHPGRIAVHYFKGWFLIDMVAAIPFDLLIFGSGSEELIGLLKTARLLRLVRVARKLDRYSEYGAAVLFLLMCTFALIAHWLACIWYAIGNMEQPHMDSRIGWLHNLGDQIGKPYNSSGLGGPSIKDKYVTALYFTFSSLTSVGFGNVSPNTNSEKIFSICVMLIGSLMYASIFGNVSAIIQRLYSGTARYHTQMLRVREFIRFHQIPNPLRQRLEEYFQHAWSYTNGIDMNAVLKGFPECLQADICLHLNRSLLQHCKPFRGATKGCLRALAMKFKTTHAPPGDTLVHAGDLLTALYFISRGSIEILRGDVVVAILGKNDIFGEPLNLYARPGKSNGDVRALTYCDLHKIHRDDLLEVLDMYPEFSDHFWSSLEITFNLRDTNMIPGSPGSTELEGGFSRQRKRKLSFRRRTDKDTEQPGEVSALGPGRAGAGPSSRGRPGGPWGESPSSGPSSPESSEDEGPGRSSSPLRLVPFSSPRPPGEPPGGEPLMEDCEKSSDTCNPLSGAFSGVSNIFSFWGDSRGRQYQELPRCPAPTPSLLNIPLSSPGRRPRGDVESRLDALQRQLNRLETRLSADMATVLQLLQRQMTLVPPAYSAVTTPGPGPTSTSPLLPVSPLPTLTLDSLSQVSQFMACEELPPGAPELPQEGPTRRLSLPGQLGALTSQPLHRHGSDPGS
Sequence of rTRPA1 (Q6RI86 whole entry): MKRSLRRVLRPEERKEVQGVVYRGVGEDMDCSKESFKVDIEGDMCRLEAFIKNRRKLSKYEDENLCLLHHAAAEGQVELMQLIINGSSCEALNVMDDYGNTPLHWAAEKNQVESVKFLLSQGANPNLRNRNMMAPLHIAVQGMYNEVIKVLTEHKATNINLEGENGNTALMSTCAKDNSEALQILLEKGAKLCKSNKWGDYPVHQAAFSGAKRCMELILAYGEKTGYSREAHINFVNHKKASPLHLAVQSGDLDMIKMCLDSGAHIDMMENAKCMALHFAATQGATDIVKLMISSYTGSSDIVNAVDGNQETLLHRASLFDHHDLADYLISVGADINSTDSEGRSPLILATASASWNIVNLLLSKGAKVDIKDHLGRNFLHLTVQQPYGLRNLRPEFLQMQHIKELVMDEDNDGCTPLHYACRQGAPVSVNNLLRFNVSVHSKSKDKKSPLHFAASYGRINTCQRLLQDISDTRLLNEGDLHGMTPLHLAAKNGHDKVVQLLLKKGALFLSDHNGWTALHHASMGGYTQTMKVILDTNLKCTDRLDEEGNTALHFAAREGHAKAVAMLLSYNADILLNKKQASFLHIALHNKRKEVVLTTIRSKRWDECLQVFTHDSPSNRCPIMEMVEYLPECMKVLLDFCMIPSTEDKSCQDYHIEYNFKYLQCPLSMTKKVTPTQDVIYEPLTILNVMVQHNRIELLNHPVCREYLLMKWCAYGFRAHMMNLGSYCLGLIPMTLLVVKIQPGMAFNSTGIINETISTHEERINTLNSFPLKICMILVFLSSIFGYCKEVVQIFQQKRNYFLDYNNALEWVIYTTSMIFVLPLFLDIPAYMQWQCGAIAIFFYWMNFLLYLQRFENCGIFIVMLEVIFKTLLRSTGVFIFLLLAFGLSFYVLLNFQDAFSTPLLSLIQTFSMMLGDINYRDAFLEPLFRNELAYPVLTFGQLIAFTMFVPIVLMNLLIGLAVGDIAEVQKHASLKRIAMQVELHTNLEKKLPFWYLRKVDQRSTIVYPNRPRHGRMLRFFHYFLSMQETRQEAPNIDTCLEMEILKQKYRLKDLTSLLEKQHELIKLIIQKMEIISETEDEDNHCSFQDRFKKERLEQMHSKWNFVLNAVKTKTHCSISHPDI

C[C@H]1CCCN1c1ncc(-c2cccc(NC(=O)Cn3cnc4c3c(=O)n(C)c(=O)n4C)n2)cn1 [Formula (Ia)]
IC50 [1]: ~100 nM | serum biomarkers of hepatotoxicity (ALT, AST, ALP, GGT) [2]: did not elevate serum biomarkers of hepatotoxicity or acute phase response | duration of pain behavior compared with vehicle [3]: shorter durations of pain behavior than those treated with the vehicle | Fold Selectivity Compared to TRPA1 [4]: >100 Fold | histopathology of liver, kidney, spleen, lung ([5]; 50 mg/kg/day): No histopathological findings in the liver, kidney, spleen, or lung; also recorded: no adverse effects | clinical signs, body weight, clinical chemistry parameters ([5]; Days 3 and 8): no adverse clinical signs, changes in body weight, or changes in clinical chemistry parameters were noted
